Values joined by “and” are separate entries in the source; they are usually repeats but may differ in a detail not shown here. Identical values can stand only once. Like-named read-outs stand apart in the source and are kept apart here.
What was measured:
[1] = system: SARS-CoV-2; assay: Combination of RdRp inhibitors with SARS-CoV-2 nsp14 inhibitors in infected Calu-3 cells, synergy; format: cell-based; parameters: EC99 mean: unit not given here; details: for EC50: Severe acute respiratory syndrome coronavirus 2, Calu-3, read-out: EC50 mean; for EC99 mean: Calu-3 cells, alone or with nsp14 inhibitor at the concentration of the label, unit not given; for EC90: Severe acute respiratory syndrome coronavirus 2, Calu-3, read-out: EC90 mean
[2] = system: Salmonella typhimurium TA 102; assay: Ames test, strain TA 102; details: Positive Control 5 µg/plate
[3] = system: SARS-CoV-2; assay: Yield-reduction assay, SARS-CoV-2 in Calu-3 cells (titers as PFU/mL in Vero cells)
[4] = system: IL-6; assay: IL-6 in supernatant of SARS-CoV-2-infected human primary monocytes; format: cell-based
Protocol: (§1) Human primary monocytes were obtained after 3 h of plastic adherence of peripheral blood mononuclear cells (PBMCs). The use of primary human cell was approved by Institutional Review Board from the Oswaldo Cruz Foundation under protocol 49971421.8.0000.5248 with signed informed consent in accordance with the Hemotherapy Service of Hospital Clementino Fraga from the Federal University of Rio de Janeiro. All volunteers were de-identified. PBMCs were isolated from healthy donors by density gradient centrifugation (Ficoll-Paque, GE Healthcare). PBMCs (2.0 × 10^6 cells) were plated onto 48-well plates (NalgeNunc) in RPMI-1640 without serum for 2–4 h. Nonadherent cells were removed, and the remaining monocytes were maintained in DMEM with 5% human serum (HS; Millipore) and penicillin/streptomycin. The purity of human monocytes was above 95%, as determined by flow cytometric analysis (FACScan; Becton Dickinson) using anti-CD3 (BD Biosciences, cat # 555342, 1:40), anti-CD16 (Southern Biotech, cat # 561313, 1:20) and APC mouse IgG2a isotype (BD Biosciences, cat # 550882, 1/40) and PE mouse IgG1 isotype (BD Biosciences, 555749, 1/20).

[5] = system: SARS-CoV-2; assay: Cell-associated virus RNA in SARS-CoV-2-infected human primary monocytes; format: cell-based
Protocol: as §1
Total viral RNA from a culture supernatant and/or monolayers was extracted using QIAamp Viral RNA (Qiagen®) according to the manufacturer’s instructions. Quantitative RT‒PCR was performed using GoTaq® Probe qPCR and RT-qPCR Systems (Promega) in a StepOne™ Real-Time PCR System (Thermo Fisher Scientific) ABI PRISM 7500 Sequence Detection System (Applied Biosystems). Amplifications were carried out in 25 µL reaction mixtures containing 2× reaction mix buffer, […] of each primer, 10 µM of probe, and 5 µL of RNA template. Primers, probes, and cycling conditions recommended by the Centers for Disease Control and Prevention (CDC) protocol were used to detect SARS-CoV-2[52]. The standard curve method was employed for virus quantification. For reference to the cell amounts used, the housekeeping gene RNAse P (F-5′-[…] -3′, R-5′[…] -3′, P-5′-FAM-[…] -BHQ-1-3′) was amplified. The Ct values for this target were compared to those obtained for different cell amounts, 10^7 to 10^2, for calibration.

[6] = system: SARS-CoV-2; assay: Genomic and subgenomic viral RNA in infected Calu-3 cells (RT-PCR); format: cell-based
[7] = system: TNF-α; assay: TNF-α in supernatant of SARS-CoV-2-infected human primary monocytes; format: cell-based
Protocol: as §1

[8] = biological target: SARS-CoV-2 RNA polymerase, nsp12, 7, and 8 (Severe acute respiratory syndrome coronavirus 2, UniProt P0DTD1); assay: SARS-CoV-2 RNA polymerase inhibition assay (pyrophosphate luminescence); format: biochemical
[9] = infected Calu-3, compound alone at 10 uM
[10] = infected monocytes, drugs at 10 µM, 24 h, listed as RDV
[11] = Calu-3, 10 µM, 48 h, listed as RDV

Compound: Cc1nnc(C(=O)NC(C)(C)c2nc(C(=O)NCc3ccc(F)cc3)c(O)c(=O)n2C)o1 [RTG, raltegravir]
- EC50 [1]: 4800 nM
- Effects on SARS-CoV-2 replication ([1]; alone at 5 µM, Calu-3): marginal effects
- Virus productive titers (Fig3A source data, replicates) ([1]; infected Calu-3, RTG alone at 5uM): 224000 and 448000

Compound: Nc1ccc2cc3ccccc3cc2c1 [2-AA, 2-aminoanthracene, reference compound]
- Mutagenicity TA 102 +S9 [2]: +

Compound: CC(C)OC(=O)[C@H](C)N[P@](=O)(OC[C@H]1O[C@@H](n2ccc(=O)[nH]c2=O)[C@](C)(F)[C@@H]1O)Oc1ccccc1 [Sofosbuvir, sofosbuvir]
- Virus productive titers (Fig3A source data, replicates) [1, 9]: 64000 and 24000 and 240000
- Virus productive titers (Fig3B source data, replicates) [1, 9]: 64000 and 24000 and 240000

Compound: NC(=O)c1nc(F)c[nH]c1=O [Favipiravir, favipiravir]
- EC50 [1]: 7800 nM

Compound: c1coc(CNc2ncnc3c2ncn3C2CCCCO2)c1 (stereo not shown) [MB-906, 6-furfurylamino-9-(tetrahydropyran-2-yl)−9H-purine]
- Antiviral activity, SARS-CoV-2 replication ([3]; huh-7 and calu-3 cells (Supplementary Fig. 2)): impaired

Compound: CCC(CC)COC(=O)[C@H](C)N[P@](=O)(OC[C@H]1O[C@@](C#N)(c2ccc3c(N)ncnn23)[C@H](O)[C@@H]1O)Oc1ccccc1 [Remdesivir, remdesivir, reference compound]
- EC99 mean [1]: 1.1
- EC50 [1]: 90 nM
- EC90 [1]: 400 nM
- IL-6 levels in the culture supernatant (Fig1E source data, per donor) [4, 10]: 2.2 and 1.5 and 3.0 and 4.2 and 2.9 and 1.1
- EC50 ([3]; Severe acute respiratory syndrome coronavirus 2, Calu-3): 150 ± 30 nM
- EC50 ([3]; Severe acute respiratory syndrome coronavirus 2, Calu-3, 24 h): 10 ± 3 nM
- Inhibition of SARS-CoV-2 infectious titers (Fig1B source data, replicates) ([3]; additional treatment at 24 h, Drug 0.001, Calu-3, 48 h, listed as RDV): 28 and 35 and 32
- Inhibition of SARS-CoV-2 infectious titers (Fig1B source data, replicates) ([3]; additional treatment at 24 h, Drug 0.01, listed as RDV): 40 and 60 and 50
- Inhibition of SARS-CoV-2 infectious titers (Fig1B source data, replicates) ([3]; additional treatment at 24 h, Drug 0.1, listed as RDV): 80 and 70 and 60
- Inhibition of SARS-CoV-2 infectious titers (Fig1B source data, replicates) ([3]; additional treatment at 24 h, Drug 1): 100
- Inhibition of SARS-CoV-2 infectious titers (Fig1B source data, replicates) ([3]; additional treatment at 24 h, Drug 10): 100
- Inhibition of SARS-CoV-2 infectious titers (Fig1A source data, replicates) ([3]; one treatment, Drug 0.001, Calu-3, MOI 0.1, 48 h, listed as RDV): 12 and 16 and 10
- Inhibition of SARS-CoV-2 infectious titers (Fig1A source data, replicates) ([3]; one treatment, Drug 0.01, listed as RDV): 30 and 50 and 55
- Inhibition of SARS-CoV-2 infectious titers (Fig1A source data, replicates) ([3]; one treatment, Drug 0.1, listed as RDV): 45 and 50 and 72
- Inhibition of SARS-CoV-2 infectious titers (Fig1A source data, replicates) ([3]; one treatment, Drug 1): 100
- Inhibition of SARS-CoV-2 infectious titers (Fig1A source data, replicates) ([3]; one treatment, Drug 10): 100
- Cell-associated virus RNA levels in SARS-CoV-2-infected monocytes ([5]; Fig. 1c): reduced cell-associated virus RNA levels in a concentration-dependent manner
- Genomic viral RNA (Fig2B source data, replicates) [6, 11]: 0.221 and 0.22 and 0.2
- Subgenomic viral RNA (Fig2B source data, replicates) [6, 11]: 0.07 and 0.05 and 0.09
- TNF-α levels in the culture supernatant (Fig1D source data, per donor) [7, 10]: 1.6 and 1.4 and 0.437 and 0.351 and 5.3 and 4.9 and 4.3 and 6.2

Compound: O=P(O)(O)OP(=O)(O)OP(=O)(O)OC[C@H]1O[C@@H](n2cnc3c(NCc4ccco4)ncnc32)[C@H](O)[C@@H]1O [801-TP, Kinetin ribose 5’-triphosphate]
- IC50 [8]: 100 ± 3 nM
- IC50 fold higher than that of GS-443902 [8]: 3 fold
- SARS-CoV-2 RNA polymerase inhibition (Fig2A source data, replicates) ([8]; Drug Concentration 0.001): 4 and 6 and 8
- SARS-CoV-2 RNA polymerase inhibition (Fig2A source data, replicates) ([8]; Drug Concentration 0.01): 4 and 5 (2×)
- SARS-CoV-2 RNA polymerase inhibition (Fig2A source data, replicates) ([8]; Drug Concentration 0.1): 53 and 50 and 55
- SARS-CoV-2 RNA polymerase inhibition (Fig2A source data, replicates) ([8]; Drug Concentration 1): 60 and 47 and 52
- SARS-CoV-2 RNA polymerase inhibition (Fig2A source data, replicates) ([8]; Drug Concentration 10): 70 and 75 and 51

Compound: COC(=O)N[C@H](C(=O)N1CCC[C@H]1c1nc(-c2ccc(-c3ccc(-c4c[nH]c([C@@H]5CCCN5C(=O)[C@@H](NC(=O)OC)C(C)C)n4)cc3)cc2)c[nH]1)C(C)C [Daclatasvir, daclatasvir]
- EC50 [1]: 700 nM
- EC90 [1]: 3800 nM

Compound: CC(C)OC(=O)[C@H](C)NP(=O)(OC[C@H]1O[C@@H](n2cnc3c(NCc4ccco4)ncnc32)[C@H](O)[C@@H]1O)Oc1ccccc1 (stereo partly drawn) [MB-711, Phenyl (Isopropoxy-L-alaninyl) Kinetin Riboside Phosphoramidate]
- Virus productive titers (Fig3A source data, replicates) [1]: 46000 and 30000 and 28000
- Virus productive titers (Fig3B source data, replicates) [1]: 46000 and 30000 and 45000
- IL-6 levels in the culture supernatant (Fig1E source data, per donor) [4]: 2.2 and 1.8 and 0.121 and 4.3 and 3.4 and 5.0 and 1.5 and 2.9
- Inhibition of SARS-CoV-2 infectious titers (Fig1A source data, replicates) [3]: 20 and 7 and 28 and 24 and 64 and 23 and 25 and 50 and 33 and 60 and 57 and 42 and 79 (2×) and 81
- Inhibition of SARS-CoV-2 infectious titers (Fig1B source data, replicates) [3]: 16 (2×) and 20 and 43 and 73 and 50 and 55 and 71 and 77 (2×) and 80 and 75 and 99 and 97 and 95
- Cell-associated virus RNA levels in SARS-CoV-2-infected monocytes [5]: reduced cell-associated virus RNA levels in a concentration-dependent manner
- Cell-associated virus RNA loads, inhibition (Fig1C source data, per donor) [5]: 2 (2×) and 0 and 32 and 30 and 35 and 40 and 45 and 50
- Genomic viral RNA (Fig2B source data, replicates) [6]: 0.3 and 0.45 and 0.2
- Subgenomic viral RNA (Fig2B source data, replicates) [6]: 0.6 and 0.8 and 0.5
- TNF-α levels in the culture supernatant (Fig1D source data, per donor) [7]: 1.6 and 1.8 and 0.638 and 2.6 and 5.0 and 4.1

Compound: COC(=O)N[C@H](C(=O)N1CCC[C@H]1C(=O)Nc1ccc([C@@H]2CC[C@@H](c3ccc(NC(=O)[C@@H]4CCCN4C(=O)[C@@H](NC(=O)OC)C(C)C)cc3)N2c2ccc(C(C)(C)C)cc2)cc1)C(C)C [Ombitasvir, ombitasvir]
- EC99 mean [1]: 18
- EC50 [1]: 400 nM
- EC90 [1]: 3300 nM

Compound: C[C@H](Cn1cnc2c(N)ncnc21)OCP(=O)(O)O [Tenofovir, tenofovir]
- EC50 [1]: 4300 nM
- Virus productive titers (Fig3A source data, replicates) [1, 9]: 80000 and 88000 and 5000
- Virus productive titers (Fig3B source data, replicates) [1, 9]: 80000 and 88000 and 5000

Compound: COC(=O)N[C@H](C(=O)N1CCC[C@H]1c1nc2cc([C@H]3CC[C@H](c4cc5nc([C@@H]6CCCN6C(=O)[C@@H](NC(=O)OC)[C@@H](C)OC)[nH]c5cc4F)N3c3cc(F)c(N4CCC(c5ccc(F)cc5)CC4)c(F)c3)c(F)cc2[nH]1)[C@@H](C)OC [Pibrentasvir, pibrentasvir]
- EC99 mean [1]: 19
- EC50 [1]: 700 nM
- EC90 [1]: 4200 nM

Compound: N#C[C@@]1(c2ccc3c(N)ncnn23)O[C@H](COP(=O)(O)OP(=O)(O)OP(=O)(O)O)[C@@H](O)[C@H]1O [GS-443902]
- SARS-CoV-2 RNA polymerase inhibition (Fig2A source data, replicates) ([8]; Drug Concentration 0.001): 3 (2×) and 5
- SARS-CoV-2 RNA polymerase inhibition (Fig2A source data, replicates) ([8]; Drug Concentration 0.01): 6 and 40 and 5
- SARS-CoV-2 RNA polymerase inhibition (Fig2A source data, replicates) ([8]; Drug Concentration 0.1): 65 and 63 and 80
- SARS-CoV-2 RNA polymerase inhibition (Fig2A source data, replicates) ([8]; Drug Concentration 1): 90 (2×) and 53
- SARS-CoV-2 RNA polymerase inhibition (Fig2A source data, replicates) ([8]; Drug Concentration 10): 99 and 90 and 75

From paper PMC9837764 (Nature Communications, 2023)
